Laboratory results published in ChEMBL document CHEMBL1150630, “Oxidation, reduction, and methylation of carnosic acid by Nocardia” (J Nat Prod, 2002).

System: Radical scavenging activity
Test: Antioxidant activity assessed as DPPH free radical scavenging activity after 30 mins
Format: functional

SMILES | IC50
COc1c(C(C)C)cc2c(c1O)[C@@]1(CO)CCCC(C)(C)[C@@H]1CC2 | 83.4 µM
CC(C)c1cc2c(c(O)c1O)[C@@]1(C(=O)O)CCCC(C)(C)[C@@H]1CC2 [CARNOSIC ACID] | 53.3 µM
O=C1O[C@H]([C@@H](O)CO)C(O)=C1O [ASCORBIC ACID] | 66.8 µM
CC(C)c1cc2c(c(O)c1O)[C@@]13CCCC(C)(C)[C@@H]1C[C@@H]2OC3=O [CARNOSOL] | 114 µM
Oc1cccc(O)c1O [PYROGALLOL] | 37.8 µM
CCCOC(=O)c1cc(O)c(O)c(O)c1 [PROPYL GALLATE] | 46.1 µM
CC1(C)CCC[C@@]23C(=O)OC(C[C@@H]12)c1cc(C(CO)CO)c(O)c(O)c13 | 66 µM
